PubChem BioAssay AID256 (DTP/NCI, 2004)
Several values for one entry are separate records, joined by “and”; a condition that tells them apart may be missing. Identical values can stand only once. Inconclusive results and toxic doses are left out.

Test system: CD2F1 mice, L1210 leukemia ip, survival T/C
Experiment: NCI In Vivo Anticancer Drug Screen. Data for tumor model L1210 Leukemia (intraperitoneal) in CD2F1 (CDF1) mice
Conditions: higher = longer survival
How it was run: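 Implant tumor; dose compound or vehicle; measure endpoint in both groups; report treated divided by control.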

[1] = endpoint: mean survival time, dose: 50.0 mg/kg/injection, schedule: Q04DX002 (ip), vehicle: saline with Tween-80
[2] = endpoint: mean survival time, dose: 100.0 mg/kg/injection, schedule: Q04DX002 (ip), vehicle: saline with Tween-80
[3] = endpoint: mean survival time, dose: 100.0 mg/kg/injection, schedule: Q01DX001 (ip), vehicle: saline with Tween-80
[4] = endpoint: mean survival time, dose: 200.0 mg/kg/injection, schedule: Q01DX001 (ip), vehicle: saline with Tween-80
[5] = endpoint: mean survival time, dose: 400.0 mg/kg/injection, schedule: Q01DX001 (ip), vehicle: saline with Tween-80

Nc1nc(=S)c2[nH]cnc2[nH]1
T/C (endpoint: mean survival time, dose: 0.13 mg/kg/injection, schedule: Q01DX009 (ip), vehicle: other): 110 % of control
T/C (endpoint: mean survival time, dose: 0.25 mg/kg/injection, schedule: Q01DX009 (ip), vehicle: alkali diluted with saline): 114 % of control and 120 % of control
T/C (endpoint: mean survival time, dose: 0.25 mg/kg/injection, schedule: Q01DX009 (ip), vehicle: other): 121 % of control
T/C (endpoint: mean survival time, dose: 0.38 mg/kg/injection, schedule: Q01DX009 (ip), vehicle: acid diluted with saline): 116 % of control and 123 % of control
T/C (endpoint: mean survival time, dose: 0.5 mg/kg/injection, schedule: Q01DX005 (ip), vehicle: water): 116 % of control
T/C (endpoint: mean survival time, dose: 0.5 mg/kg/injection, schedule: Q01DX009 (ip), vehicle: alkali diluted with saline): 124 % of control
T/C (endpoint: mean survival time, dose: 0.5 mg/kg/injection, schedule: Q01DX009 (ip), vehicle: other): 121 % of control
T/C (endpoint: mean survival time, dose: 0.66 mg/kg/injection, schedule: Q01DX009 (ip), vehicle: clinical formulation): 150 % of control
T/C (endpoint: mean survival time, dose: 0.75 mg/kg/injection, schedule: Q01DX009 (ip), vehicle: acid diluted with saline): 164 % of control
T/C (endpoint: mean survival time, dose: 1.0 mg/kg/injection, schedule: Q01DX005 (ip), vehicle: alkali diluted with saline): 163 % of control
T/C (endpoint: mean survival time, dose: 1.0 mg/kg/injection, schedule: Q01DX005 (ip), vehicle: water): 120 % of control
T/C (endpoint: mean survival time, dose: 1.0 mg/kg/injection, schedule: Q01DX007 (ip), vehicle: saline): 151 % of control
T/C (endpoint: mean survival time, dose: 1.0 mg/kg/injection, schedule: Q03DX003 (ip), vehicle: saline): 152 % of control
T/C (endpoint: mean survival time, dose: 1.0 mg/kg/injection, schedule: Q04DX003 (ip), vehicle: saline): 154 % of control
T/C (endpoint: mean survival time, dose: 1.12 mg/kg/injection, schedule: Q04DX003 (ip), vehicle: acid diluted with saline): 116 % of control and 118 % of control
T/C (endpoint: mean survival time, dose: 1.2 mg/kg/injection, schedule: Q01DX009 (ip), vehicle: alkali diluted with saline): 152 % of control and 153 % of control
T/C (endpoint: mean survival time, dose: 1.47 mg/kg/injection, schedule: Q01DX009 (ip), vehicle: clinical formulation): 150 % of control
T/C (endpoint: mean survival time, dose: 1.47 mg/kg/injection, schedule: Q01DX009 (ip), vehicle: saline): 158 % of control
T/C (endpoint: mean survival time, dose: 1.5 mg/kg/injection, schedule: Q01DX009 (ip), vehicle: acid diluted with saline): 164 % of control and 171 % of control and 180 % of control
T/C (endpoint: mean survival time, dose: 1.56 mg/kg/injection, schedule: Q01DX005 (ip), vehicle: alkali diluted with saline): 159 % of control
T/C (endpoint: mean survival time, dose: 1.8 mg/kg/injection, schedule: Q01DX009 (ip), vehicle: alkali diluted with saline): 151 % of control
T/C (endpoint: mean survival time, dose: 2.0 mg/kg/injection, schedule: Q01DX005 (ip), vehicle: alkali diluted with saline): 158 % of control
T/C (endpoint: mean survival time, dose: 2.0 mg/kg/injection, schedule: Q03DX003 (ip), vehicle: saline): 160 % of control
T/C (endpoint: mean survival time, dose: 2.0 mg/kg/injection, schedule: Q04DX003 (ip), vehicle: alkali diluted with saline): 122 % of control
T/C (endpoint: mean survival time, dose: 2.0 mg/kg/injection, schedule: Q04DX003 (ip), vehicle: saline): 160 % of control
T/C (endpoint: mean survival time, dose: 2.2 mg/kg/injection, schedule: Q01DX009 (ip), vehicle: clinical formulation): 155 % of control
T/C (endpoint: mean survival time, dose: 3.0 mg/kg/injection, schedule: Q01DX009 (ip), vehicle: alkali diluted with saline): 536 % of control
T/C (endpoint: mean survival time, dose: 3.12 mg/kg/injection, schedule: Q01DX005 (ip), vehicle: alkali diluted with saline): 188 % of control
T/C (endpoint: mean survival time, dose: 4.0 mg/kg/injection, schedule: Q01DX005 (ip), vehicle: alkali diluted with saline): 150 % of control
T/C (endpoint: mean survival time, dose: 4.0 mg/kg/injection, schedule: Q01DX007 (ip), vehicle: saline): 152 % of control
T/C (endpoint: mean survival time, dose: 4.0 mg/kg/injection, schedule: Q01DX009 (ip), vehicle: acid diluted with saline): 122 % of control
T/C (endpoint: mean survival time, dose: 4.0 mg/kg/injection, schedule: Q03DX003 (ip), vehicle: saline): 156 % of control
T/C (endpoint: mean survival time, dose: 4.0 mg/kg/injection, schedule: Q04DX003 (ip), vehicle: saline): 176 % of control
T/C (endpoint: mean survival time, dose: 4.5 mg/kg/injection, schedule: Q04DX003 (ip), vehicle: acid diluted with saline): 161 % of control
T/C (endpoint: mean survival time, dose: 6.25 mg/kg/injection, schedule: Q01DX005 (ip), vehicle: alkali diluted with saline): 159 % of control
T/C (endpoint: mean survival time, dose: 9.0 mg/kg/injection, schedule: Q04DX003 (ip), vehicle: acid diluted with saline): 166 % of control
T/C (endpoint: mean survival time, dose: 12.5 mg/kg/injection, schedule: Q01DX005 (ip), vehicle: alkali diluted with saline): 119 % of control
T/C (endpoint: mean survival time, dose: 18.0 mg/kg/injection, schedule: Q04DX003 (ip), vehicle: acid diluted with saline): 176 % of control
T/C (endpoint: mean survival time, dose: 20.0 mg/kg/injection, schedule: Q04DX003 (ip), vehicle: alkali diluted with saline): 152 % of control
T/C (endpoint: mean survival time, dose: 23.0 mg/kg/injection, schedule: Q01DX001 (ip), vehicle: alkali diluted with saline): 158 % of control
T/C (endpoint: mean survival time, dose: 25.0 mg/kg/injection, schedule: Q01DX005 (ip), vehicle: alkali diluted with saline): 96 % of control
T/C (endpoint: mean survival time, dose: 31.0 mg/kg/injection, schedule: Q01DX001 (ip), vehicle: alkali diluted with saline): 161 % of control
T/C (endpoint: mean survival time, dose: 47.0 mg/kg/injection, schedule: Q01DX001 (ip), vehicle: alkali diluted with saline): 167 % of control
T/C (endpoint: median survival time, dose: 0.86 mg/kg/injection, schedule: Q01DX009 (ip), vehicle: acid diluted with saline): 152 % of control and 154 % of control
T/C (endpoint: median survival time, dose: 1.44 mg/kg/injection, schedule: Q01DX009 (ip), vehicle: acid diluted with saline): 160 % of control
T/C (endpoint: median survival time, dose: 2.4 mg/kg/injection, schedule: Q01DX009 (ip), vehicle: acid diluted with saline): 158 % of control
T/C (endpoint: median survival time, dose: 2.7 mg/kg/injection, schedule: Q04DX003 (ip), vehicle: alkali diluted with saline): 159 % of control
T/C (endpoint: median survival time, dose: 4.0 mg/kg/injection, schedule: Q01DX009 (ip), vehicle: acid diluted with saline): 151 % of control and 152 % of control
T/C (endpoint: median survival time, dose: 4.5 mg/kg/injection, schedule: Q04DX003 (ip), vehicle: alkali diluted with saline): 172 % of control
T/C (endpoint: median survival time, dose: 7.5 mg/kg/injection, schedule: Q04DX003 (ip), vehicle: alkali diluted with saline): 191 % of control
T/C (endpoint: median survival time, dose: 12.5 mg/kg/injection, schedule: Q04DX003 (ip), vehicle: alkali diluted with saline): 187 % of control
T/C (endpoint: median survival time, dose: 20.0 mg/kg/injection, schedule: Q04DX003 (ip), vehicle: alkali diluted with saline): 151 % of control
T/C (endpoint: median survival time, dose: 20.83 mg/kg/injection, schedule: Q04DX003 (ip), vehicle: alkali diluted with saline): 166 % of control
T/C (endpoint: median survival time, dose: 40.0 mg/kg/injection, schedule: Q01DX001 (ip), vehicle: alkali diluted with saline): 150 % of control and 161 % of control
T/C (endpoint: median survival time, dose: 60.0 mg/kg/injection, schedule: Q01DX001 (ip), vehicle: alkali diluted with saline): 183 % of control

O/N=C(\c1ccccc1)C1C(/C(=N/O)c2ccccc2)C1c1ccccc1 (configuration not stated)
T/C [1]: 90 % of control
T/C [2]: 87 % of control

CCC(C=O)(CC)CCC#N
T/C (endpoint: mean survival time, dose: 25.0 mg/kg/injection, schedule: Q01DX001 (ip), vehicle: Klucel (hydroxypropylcellulose) (HPC)): 96 % of control
T/C (endpoint: mean survival time, dose: 50.0 mg/kg/injection, schedule: Q01DX001 (ip), vehicle: Klucel (hydroxypropylcellulose) (HPC)): 103 % of control
T/C (endpoint: mean survival time, dose: 100.0 mg/kg/injection, schedule: Q01DX001 (ip), vehicle: Klucel (hydroxypropylcellulose) (HPC)): 87 % of control
T/C [3]: 103 % of control
T/C [4]: 100 % of control
T/C [5]: 100 % of control

O=C(O)C(O)Cn1ccccc1=O (configuration not stated)
T/C (endpoint: mean survival time, dose: 50.0 mg/kg/injection, schedule: Q01DX001 (ip), vehicle: saline): 104 % of control
T/C (endpoint: mean survival time, dose: 100.0 mg/kg/injection, schedule: Q01DX001 (ip), vehicle: saline): 96 % of control
T/C (endpoint: mean survival time, dose: 200.0 mg/kg/injection, schedule: Q01DX001 (ip), vehicle: saline): 101 % of control

NC(=O)C(c1ccccc1)N1CCOCC1 (configuration not stated)
T/C (endpoint: mean survival time, dose: 100.0 mg/kg/injection, schedule: Q01DX009 (ip), vehicle: saline): 100 % of control
T/C (endpoint: mean survival time, dose: 200.0 mg/kg/injection, schedule: Q01DX009 (ip), vehicle: saline): 101 % of control
T/C (endpoint: mean survival time, dose: 400.0 mg/kg/injection, schedule: Q01DX009 (ip), vehicle: saline): 105 % of control

CN1C(=O)C=CC1=O (tested in a mixture with another compound)
T/C (endpoint: mean survival time, dose: 25.0 mg/kg/injection, schedule: Q04DX002 (ip), vehicle: saline with Tween-80): 103 % of control
T/C [1]: 91 % of control
T/C [2]: 95 % of control
T/C (endpoint: mean survival time, dose: 200.0 mg/kg/injection, schedule: Q04DX002 (ip), vehicle: saline with Tween-80): 91 % of control

COCCOCCOc1cc(-c2c(OCCOCCOC)ccc3ccccc23)c2ccccc2c1
T/C [3]: 100 % of control
T/C [4]: 100 % of control
T/C [5]: 100 % of control

Nc1ncnc2c1c(C(=O)NO)cn2C1OC(CO)C(O)C1O (configuration not stated)
T/C (endpoint: mean survival time, dose: 50.0 mg/kg/injection, schedule: Q01DX001 (ip), vehicle: water): 170 % of control

CCC(=O)c1ccc(NC(=O)Nc2ncccn2)cc1
T/C (endpoint: mean survival time, dose: 50.0 mg/kg/injection, schedule: Q01DX009 (ip), vehicle: Klucel (hydroxypropylcellulose) (HPC)): 91 % of control
T/C (endpoint: mean survival time, dose: 100.0 mg/kg/injection, schedule: Q01DX009 (ip), vehicle: Klucel (hydroxypropylcellulose) (HPC)): 94 % of control

Clc1ccccc1/C=C1\c2ccccc2-c2nc3ccccc3nc21
T/C (endpoint: mean survival time, dose: 100.0 mg/kg/injection, schedule: Q04DX003 (ip), vehicle: saline with Tween-80): 109 % of control
T/C (endpoint: mean survival time, dose: 200.0 mg/kg/injection, schedule: Q04DX003 (ip), vehicle: saline with Tween-80): 103 % of control
T/C (endpoint: mean survival time, dose: 400.0 mg/kg/injection, schedule: Q04DX003 (ip), vehicle: saline with Tween-80): 97 % of control
